For assay [1], the system named is HUVEC. As to the kind of experiment: Antiproliferative activity in HUVEC assessed as reduction in cell viability measured after 72 hrs by MTT assay. The format is functional, cell-based. The settings on record: Homo sapiens.
The subject of assay [2] is HUVEC. Description: Antimigratory activity in HUVEC assessed as inhibition of cell migration measured after 16 to 20 hrs by crystal violet staining-based microscopic analysis. Format: functional. The settings on record: Homo sapiens.
The subject of assay [3] is HUVEC. Description: Cytotoxicity in HUVEC assessed as reduction in cell viability measured after 24 hrs by MTT assay. Format: cell-based. The settings on record: Homo sapiens. (Tetrazolium dyes change colour on reduction, which living cells bring about.)
The test system of assay [4] is HUVEC. As to the kind of experiment: Antimigratory activity in HUVEC assessed as inhibition of cell migration at 10 uM measured after 16 to 20 hrs by crystal violet staining-based microscopic analysis. The format is functional. To be noted: Homo sapiens.
Assay [5] is described as follows: Antiproliferative activity against bFGF-stimulated BBEC by Coulter particle counter method. Format: functional, Bos taurus.
Assay [6] concerns RF/6A. Description: Antimigratory activity in rhesus monkey RF/6A cells measured after 24 hrs by wound assay. The format is functional, cell-based. The settings on record: Macaca mulatta.
Assay [7] relates to RF/6A. As to the kind of experiment: Antiproliferative activity in rhesus monkey RF/6A cells measured after 24 to 72 hrs by MTT assay. The format is functional, cell-based. To be noted: Macaca mulatta.

The source made the active and inactive calls. The calls are words filed in the database; no cut-off is given here.

As a reminder, the IC50 is the midpoint of a concentration-inhibition curve.

As to `COc1cc(C2Oc3cc(-c4oc5cc(O)cc(O)c5c(=O)c4OC(=O)c4cc(O)c(O)c(O)c4)ccc3OC2CO)ccc1O` (stereo not drawn), the IC50 in the assay with HUVEC [1] came out at 11.7 µM; with HUVEC [2] it was 36.8 µM; with HUVEC [3] it was 18.9 µM. The inhibition result in the assay on HUVEC [4] was “Active”.
Consider `COCC1Oc2ccc(-c3oc4cc(O)cc(O)c4c(=O)c3O)cc2OC1c1ccc(O)c(OC)c1` (stereo not drawn), for which the IC50 in the assay on HUVEC [1] amounted to 5.3 µM; in the assay with HUVEC [2], 10.5 µM; in the assay with HUVEC [3], 28.3 µM. Further, the inhibition result in the assay on HUVEC [4] is “Active”.
In assay [5], `O=c1cc(-c2ccc(O)c(O)c2)oc2cc(O)cc(O)c12` [LUTEOLIN] yielded an IC50 of 1.9 µM.
As for `COc1cc(C2Oc3cc(-c4oc5cc(O)cc(OC)c5c(=O)c4O)ccc3OC2CO)ccc1O` (stereo not drawn), the IC50 with HUVEC [1] turned out to be 6.2 µM; in the assay with HUVEC [2], 11.1 µM; in the assay with HUVEC [3], 62.4 µM. The inhibition result in the assay with HUVEC [4] is “Active”.
Take `COc1cc(C2Oc3cc(-c4oc5cc(O)cc(O)c5c(=O)c4OC)ccc3OC2CO)ccc1O` (stereo not drawn): the IC50 in the assay on HUVEC [1] came out at 4.9 µM; with HUVEC [2] it was 11.3 µM; with HUVEC [3], 22.5 µM. For the same compound, in the assay on HUVEC [4], the inhibition entry is “Active”.
In the same order, the values of `COc1cc(O)c2c(=O)c(O)c(-c3ccc4c(c3)OC(c3ccc(O)c(OC)c3)C(CO)O4)oc2c1` (stereo not drawn) are 6.7 µM, 10.4 µM, 15.2 µM and “Active”.
Regarding `COc1cc(C2Oc3cc(-c4oc5cc(OC(=O)c6cc(O)c(O)c(O)c6)cc(O)c5c(=O)c4O)ccc3OC2CO)ccc1O` (stereo not drawn), the IC50 came to 1.6 µM with HUVEC [1], 4.7 µM in the assay with HUVEC [2] and 3.4 µM in the assay with HUVEC [3]. In the assay on HUVEC [2], the inhibition result is “Dose-dependent effect”. For the same compound, in the assay on HUVEC [4], the inhibition result was “Active”.
As to `COc1cc(O)c2c(=O)c(OC)c(-c3ccc4c(c3)OC(c3ccc(O)c(OC)c3)C(CO)O4)oc2c1` (stereo not drawn), the IC50 worked out at 8.3 µM with HUVEC [1], 49.9 µM in the assay on HUVEC [2] and 43.1 µM in the assay on HUVEC [3]. Moreover, the inhibition result in the assay with HUVEC [4] was “Active”.
In assay [5], `O=c1cc(-c2ccc(O)c(O)c2)oc2cc(OC3O[C@H](CO)[C@@H](O)[C@H](O)[C@H]3O)cc(O)c12` (stereo partly drawn) gave a half-maximal inhibitory concentration (IC50) of 18 µM.
As to `O=c1c(O)c(-c2ccc(O)c(O)c2)oc2cc(O)cc(O)c12` [QUERCETIN], the values for the IC50 (in the assay with RF/6A [6]; in assay [5]; in the assay on RF/6A [7]) were 40 µM, 5.4 µM and 70 µM, respectively.
On to `COc1cc(C2Oc3cc(-c4oc5cc(O)cc(O)c5c(=O)c4O)ccc3OC2CO)ccc1O` (stereo not drawn) [DEHYDROSILYLBIN], for which the IC50 was determined as 5.4 µM in the assay on HUVEC [1], 12.2 µM with HUVEC [2] and 12 µM with HUVEC [3]. For the same compound, the inhibition result in the assay with HUVEC [4] was “Active”.

These data come from ChEMBL document CHEMBL4477189, “Effects of 2,3-Dehydrosilybin and Its Galloyl Ester and Methyl Ether Derivatives on Human Umbilical Vein Endothelial Cells” (J Nat Prod, 2016).
